In article PMC10706087, “The Subtype Selectivity in Search of Potent Hypotensive Agents among 5,5-Dimethylhydantoin Derived α1-Adrenoceptors Antagonists” (International Journal of Molecular Sciences, 2023):
Where “and” joins values, the source holds several entries; their conditions need not be identical. Equal values may be shown once.

Assays:
[1] = target: T1, human adrenergic receptor α1B (Homo sapiens, UniProt P35368); assay: Intrinsic activity, aequorin luminescence functional assay at α1B-AR; assay type: cell-based; settings: for α1B-AR Profile: agonist/antagonist profile; for IC50: cells expressing aequorin and human α1B, against phenylephrine, means of three independent experiments in duplicates; for Selectivity Ratio α1A/α1B: selectivity for α1B-AR (IC50(α1A-AR)/IC50(α1B-AR))
T1 sequence (P35368 1-520): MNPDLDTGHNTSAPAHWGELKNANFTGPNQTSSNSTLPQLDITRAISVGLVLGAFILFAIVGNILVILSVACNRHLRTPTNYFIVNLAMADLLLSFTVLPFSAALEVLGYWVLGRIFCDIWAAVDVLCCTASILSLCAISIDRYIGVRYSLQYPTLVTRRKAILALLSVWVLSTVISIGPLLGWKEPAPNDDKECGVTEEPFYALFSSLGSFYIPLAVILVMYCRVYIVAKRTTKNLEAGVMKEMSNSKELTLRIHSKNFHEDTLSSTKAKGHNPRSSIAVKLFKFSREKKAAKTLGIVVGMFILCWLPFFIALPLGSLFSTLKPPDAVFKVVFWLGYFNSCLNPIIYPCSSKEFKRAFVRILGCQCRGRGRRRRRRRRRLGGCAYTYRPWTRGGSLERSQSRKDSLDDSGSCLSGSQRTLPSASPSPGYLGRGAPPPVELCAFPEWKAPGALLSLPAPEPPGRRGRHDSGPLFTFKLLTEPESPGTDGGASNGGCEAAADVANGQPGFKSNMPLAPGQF
Method: (§1) The subtype selectivity for α1A and α1B was calculated as IC50(α1B-AR)/IC50(α1A-AR) and IC50(α1A-AR)/IC50(α1B-AR) ratio, respectively.
(§2) Intrinsic activity at the α1-AR subtypes studies were performed using the cells expressing mitochondrially-targeted aequorin and one of the human adrenergic receptor α1A or α1B (PerkinElmer, Boston, MA, USA), according to the manufacturer’s instructions. For measurement, frozen cells were thawed and re-suspended in 10 mL of assay buffer containing 5 μM “Coelenterazine h”. This cell suspension was put in a 10 mL Falcon tube, fixed onto a rotating heel, and incubated overnight at rt in the dark (8 rpm; 45° angle). Cells were diluted with Assay Buffer to 5000 cells/20 μL. […] The light emitted was recorded for 20 s. Cells with antagonists were incubated for 15 min at room temperature. […] Luminescence was measured using the multidetection microplate reader (POLARstar Omega, BMG LABTECH, Ortenberg, Germany).
(§3) All statistics were performed using GraphPad Prism, Version 6.0 (GraphPad Software, San Diego, CA, USA). In the radioligand binding study, data were analyzed by a one-site curve-fitting equation, and inhibition constants (Ki) values were calculated via the Cheng-Prusoff equation [63]. In functional studies, data were analyzed using a sigmoidal dose-response (variable slope) equation. Arterial blood pressure data were analyzed using a two-way ANOVA with Sidak’s post-hoc test for multiple comparisons. A p < 0.05 was considered statistically significant.

[2] = target: T2, human adrenergic receptor α1A (Homo sapiens, UniProt P35348); assay: Intrinsic activity, aequorin luminescence functional assay at α1A-AR; assay type: cell-based; settings: for α1A-AR Profile: agonist/antagonist profile; for IC50: cells expressing aequorin and human α1A, against phenylephrine, means of three independent experiments in duplicates; for Selectivity Ratio α1B/α1A: selectivity for α1A-AR (IC50(α1B-AR)/IC50(α1A-AR))
T2 sequence (P35348 1-466): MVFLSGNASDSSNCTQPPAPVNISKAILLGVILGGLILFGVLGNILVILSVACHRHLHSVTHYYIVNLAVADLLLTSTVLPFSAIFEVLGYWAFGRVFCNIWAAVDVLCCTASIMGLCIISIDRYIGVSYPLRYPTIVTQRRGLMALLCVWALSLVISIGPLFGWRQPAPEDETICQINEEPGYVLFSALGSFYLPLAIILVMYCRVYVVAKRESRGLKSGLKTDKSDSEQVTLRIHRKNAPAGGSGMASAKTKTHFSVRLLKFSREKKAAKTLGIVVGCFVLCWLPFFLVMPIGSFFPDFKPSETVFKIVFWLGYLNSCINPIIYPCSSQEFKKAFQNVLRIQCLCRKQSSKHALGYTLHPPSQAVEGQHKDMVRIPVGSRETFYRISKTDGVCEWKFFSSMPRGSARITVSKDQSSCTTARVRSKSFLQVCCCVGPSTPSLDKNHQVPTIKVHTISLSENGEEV
Method: as §1, §2, §3

[3] = tested on: arterial blood pressure of normotensive Wistar rats; assay: Influence on blood pressure in normotensive anesthetized rats after i.v. administration; assay type: in vivo, rat; settings: for Diastolic blood pressure / Systolic blood pressure: 2.0 mg/kg i.v., mean, n = 6; for effect on systolic and diastolic blood pressure (in words): i.v., normotensive anesthetized rats
Method: In the next step, the hypotensive activity of novel compounds 1–3, 5–9, and 11–14 was determined after i.v. administration to normotensive anesthetized rats. All results are shown in Supplementary Table S1.
The normotensive rats were anesthetized with thiopental (75 mg/kg) by intraperitoneal injection (i.p.). The left carotid artery was cannulated with a polyethylene tub filled with heparin in saline to facilitate pressure measurements using a PowerLab Apparatus (ADInstruments, Sydney, Australia). Blood pressure was measured immediately before administration of the tested compounds or vehicle—time 0 min (initial blood pressure) and 60 min thereafter. Initial blood pressure before administration of the tested chemicals in all experimental groups was similar. The tested compounds were dissolved in a specific vehicle: ethyl alcohol 5% − kolliphor 5% − water 90%. All tested chemicals were administrated intravenously (i.v.) at a constant volume of 1 mL/kg after 20 min of stabilization period. The compounds were tested at a starting dose of 2 mg/kg. If the hypotensive activity was found, the dose was reduced by half. The dosing was continued until the hypotensive effects disappeared. Urapidil was used as a reference compound.
as §3

[4] = target: α1-adrenoceptors (α1-ARs), rat cerebral cortex; assay: Radioligand binding assay with [3H]-prazosin, affinity for α1-ARs; settings: three independent experiments in duplicates, read-out: α1-adrenoceptor affinity Ki
Method: In the first step, all synthesized compounds (1–15) were tested in vitro for their affinity for α1-ARs on rat cerebral cortex by the radioligand binding assay using [^3H]-prazosin as a specific radioligand.
The affinity for α1-ARs was determined by radioligand binding assay on rat cerebral cortex using [3H]-prazosin as a specific radioligand. The brains were homogenized in 20 volumes of an ice-cold 50 mM Tris-HCl buffer (pH 7.6) and were centrifuged (MPW Med. Instruments, Warsaw, Poland) at 20,000× g for 20 min (0–4 °C). The cell pellet was resuspended in the Tris-HCl buffer and centrifuged again. Radioligand-binding assay was performed in plates (MultiScreen/Millipore, Burlington, MA, USA). The final incubation mixture (final volume 300 μL) consisted of 240 μL of the membrane suspension, 30 μL of [3H]-Prazosin (0.2 nM) solution, and 30 μL of the buffer containing seven to eight concentrations (10^−11 to 10^−4 M) of the tested compounds. For measuring the unspecific binding, phentolamine, 10 μM (in the case of [3H]-Prazosin) was applied. The incubation was terminated by rapid filtration over glass fiber filters (Whatman GF/C, Sigma-Aldrich) using a vacuum manifold (Millipore). The filters were then washed twice with the assay buffer and placed in scintillation vials with a liquid-scintillation cocktail. Radioactivity was measured in a WALLAC 1409 DSA liquid-scintillation counter (BioSurplus, San Diego, CA, USA).
as §3

[5] = 0 min (initial, before administration)

Row | melting point [°C] | α1B-AR Profile [1] | IC50 [1] | Selectivity Ratio α1A/α1B [1] | α1A-AR Profile [2] | IC50 [2] | Selectivity Ratio α1B/α1A [2] | Structure (SMILES) | Diastolic blood pressure [3, 5] | Systolic blood pressure [3, 5] | Diastolic blood pressure ([3]; 5 min) | Systolic blood pressure ([3]; 5 min) | Diastolic blood pressure ([3]; 10 min) | Systolic blood pressure ([3]; 10 min) | Diastolic blood pressure ([3]; 20 min) | Systolic blood pressure ([3]; 20 min) | Diastolic blood pressure ([3]; 30 min) | Systolic blood pressure ([3]; 30 min) | Diastolic blood pressure ([3]; 40 min) | Systolic blood pressure ([3]; 40 min) | Diastolic blood pressure ([3]; 50 min) | further results
1 | 201 to 203 | Antagonist | < 100 nM and < 11 nM and 10.7 nM | 8.46 | Antagonist | < 100 nM and 90.6 nM | 0.12 | COc1ccccc1N1CCN(CCCN2C(=O)N(Cc3ccc(Cl)cc3Cl)C(=O)C2(C)C)CC1.Cl [Compound 1, 3-(2,4-dichlorobenzyl)-1-(3-(4-(2-methoxyphenyl)piperazin-1-yl)propyl)-5,5-dimethylimidazolidine-2,4-dione hydrochloride] | 101.0 | 133.3 | 88.3 | 120.3 | 82.3 | 113.0 | 82.2 | 112.2 | 81.3 | 114.2 | 80.8 | 114.7 | 81.7 | Systolic blood pressure ([3]; 50 min): 116.0; Diastolic blood pressure ([3]; 60 min): 83.3; Systolic blood pressure ([3]; 60 min): 117.5; effect on systolic and diastolic blood pressure (in words) [3]: statistically significant reduction; Ki [4]: 31 nM
2 | 185 to 187 | Antagonist | 1150 nM | 1.51 | Antagonist | 1730 nM | 0.66 | CC1(C)C(=O)N(Cc2ccc(Cl)cc2Cl)C(=O)N1CCCN1CCN(c2cccc(Cl)c2Cl)CC1.Cl [Compound 2, 3-(2,4-dichlorobenzyl)-1-(3-(4-(2,3-dichlorophenyl)piperazin-1-yl)propyl)-5,5-dimethylimidazolidine-2,4-dione hydrochloride] | 100.7 | 129.3 | 98.5 | 126.7 | 96.8 | 124.2 | 92.8 | 121.7 | 90.3 | 121.2 | 89.3 | 120.2 | 88.0 | Systolic blood pressure ([3]; 50 min): 120.3; Diastolic blood pressure ([3]; 60 min): 88.0; Systolic blood pressure ([3]; 60 min): 119.3; Ki [4]: 535 nM
3 | 218 to 220 | Antagonist | < 11 nM and 3.27 nM | 88.73 | Antagonist | 290 nM | 0.01 | CC1(C)C(=O)N(Cc2ccc(Cl)cc2Cl)C(=O)N1CCCCCN1CCN(c2ccccc2)CC1.Cl [Compound 3, 3-(2,4-dichlorobenzyl)-5,5-dimethyl-1-(5-(4-phenylpiperazin-1-yl)pentyl)imidazolidine-2,4-dione hydrochloride] | 93.7 | 132.2 | 90.3 | 123.3 | 81.2 | 113.7 | 81.7 | 113.0 | 83.2 | 116.3 | 82.7 | 116.3 | 84.2 | selectivity for α1B-AR over α1A-AR ([1]; from IC50 ratio): ~ 90 fold; Systolic blood pressure ([3]; 50 min): 120.3; Diastolic blood pressure ([3]; 60 min): 83.8; Systolic blood pressure ([3]; 60 min): 119.7; effect on systolic and diastolic blood pressure (in words) [3]: statistically significant reduction; Ki [4]: 43 nM
